Laboratory results reported in US20260327578A1, “TRANSGLUTAMINASES AND USES THEREOF” (CURIE CO. INC., priority 2023, published 2026).

Experiments:
[1] = test system: E. coli (ATCC 8739) / C. albicans (ATCC 10231); experiment: MIC of permeabilizer co-dosants with and without Tgase variant; format: cell-based; settings: for Co-Dosant MIC, with Tgase variant: with Tgase variant A3 (SEQ ID NO: 4): 12.5 ppm with polymyxin B, 200 ppm with chlorhexidine and with the mixture
Experimental: E. coli (ATCC 8739) and C. albicans (ATCC 10231) were acquired from the American Type Culture Collection (ATCC) (Manassas, VA) and maintained as −80° C. frozen glycerol stocks.
The following day, the cell density of the saturated cultures was calculated using OD600 and cultures were diluted to 104 to 10^6 CFU/mL in sterile Mueller Hinton broth to generate the inoculum, and 100 μL of the inoculum was combined with 100 μL of serially diluted Tgase variant A3 (SEQ ID NO: 4) at a range of 0.0001-0.05 weight percent. Growth curves were measured by OD600 on a BioTek® Synergy Plate Reader. All test conditions were performed in triplicate. MIC was determined to be […] (0.005% w/v) against E. coli for the enzyme described in SEQ ID NO: 4 using OD600.
For MIC determination of yeast cultures, C. albicans (ATCC 10231) was grown overnight (24 hours) in Sabouraud Dextrose broth at 30° C. The following day, the cell density of the saturated cultures was calculated using OD600 and cultures were diluted to 104 to 10^6 CFU/mL in sterile Sabouraud Dextrose broth media to generate the inoculum, and 100 μL of the inoculum was combined with 100 μL of serially diluted Tgase variant at a range of 0.0001-0.05 weight percent. The cultures were grown overnight at 30° C. and growth curves were measured by OD600 on a BioTek® Synergy Plate Reader. All test conditions were performed in triplicate. MIC was determined to be […] (0.005% w/v) against C. albicans for the enzyme described in SEQ ID NO: 4 using OD600.
Aseptilase activities of Tgase variant A3 (SEQ ID NO: 4) in combination with each of the three permeabilizer co-dosants, polymyxin B, chlorhexidine, and a 10000:4000:1 mixture by weight of sodium hexametaphosphate, phytic acid and chlorhexidine, were tested. […] The experiments were performed as described in Example 5. The co-dosants were added into Tgase variant A3 (SEQ ID NO: 4) solutions at concentrations of 0.125 g/L, 0.05 g/L, and 350 mM, respectively. The results are shown in Table 12 with Tgase concentrations reported within the table at the best MIC.

[2] = test system: E. coli; experiment: Preservative efficacy in body lotion against E. coli; format: cell-based; settings: 0.005% in combinations, phenoxyethanol 0.7% alone, 0.3% combined, caprylyl glycol 0.7% alone, 0.35% combined, sodium benzoate 0.5% + EDTA 0.5%, 2% 2:1 propanediol:hexanediol, 0.5% CHA solution
Experimental: (§1) A vessel was filled with deionized water, placed under an overhead stirrer set to moderate mixing, and heated to 75-80° C. Glycerin was added to 2% and mixed until dissolved, followed by xanthan gum to 0.2%. At 75-80° C., cetearyl glucoside and cetearyl alcohol were added to 4% and 3%. Once both had melted fully, milk thistle seed oil was added and the batch was homogenized with a Silverson homogenizer with the standard emulsion screen until the batch had turned milky white. The batch was removed from heat and returned to propellor mixing with decreased speed to allow the emulsion to set up. At 40° C., pH was adjusted to pH 5.5-6.0 using citric acid or sodium hydroxide and split into several portions and allowed to finish cooling. Once cooled to room temperature, one portion of the body lotion was left unpreserved and the remaining portions were preserved with one or more substances selected from aseptilase, phenoxyethanol, caprylyl glycol, sodium benzoate, and EDTA. All samples were inoculated with E. coli (10^6 CFU/mL) and C. albicans (10^5 CFU/mL) and plated after 2 and 7 days.

[3] = test system: C. albicans; experiment: Preservative efficacy in body lotion against C. albicans; format: cell-based; settings: 0.005% in combinations, phenoxyethanol 0.7% alone, 0.3% combined, caprylyl glycol 0.7% alone, 0.35% combined, sodium benzoate 0.5% + EDTA 0.5%, 2% 2:1 propanediol:hexanediol, 0.5% CHA solution
Experimental: as §1

[4] = Thermal stability at 55 °C, specific activity by colorimetric hydroxamate assay; format: biochemical
Experimental: Tgase activity was measured herein using a colorimetric hydroxamate activity assay (Folk and Cole (1965) J Biol Chemistry 240 (7): 2951-2960). Briefly, the hydroxamate assay uses N-benzyloxycarbonyl-L-glutaminyl-glycine (ZQG) as a low molecular weight amine acceptor substrate and hydroxylamine as an amine donor. In the presence of catalytically active Tgase, the hydroxylamine is incorporated to form Z-glutamylhydroxamate-glycine, which develops a colored complex with iron (III), detectable at 525 nm after incubation at 37° C. for 5-200 minutes. The calibration was performed using L-glutamic acid gamma-monohydroxamate (Millipore® Sigma®) as a standard. One unit of Tgase was defined as the amount of enzyme that catalyzes formation of 1 μmol of the peptide derivative of gamma-glutamylhydroxylamine per minute. Activity of Tgase variants is depicted in Tables 2-4.
A commercially available wild-type Tgase (Ajinimoto®, Activa® TI formulation) formulated at 0.75-1.0% enzyme in maltodextrin was purchased from Amazon.com and dissolved in water at 20% w/v. The concentration of the mature Tgase in the solution was confirmed by high-performance liquid chromatography (HPLC) and the sample was further diluted to 0.1 g/L of enzyme. Following dilution, the enzyme was subjected to the hydroxamate assay as described in Example 4 to determine specific activity. The specific activity of the commercial wild-type Tgase compared to Tgase variant A3 (SEQ ID NO: 4), further comprising an N-terminal methionine, is shown in FIG. 1.
The thermal stability of Tgase variant A3 (SEQ ID NO: 4) compared to the commercial wild-type Tgase was evaluated by incubating the samples at 55° C. and testing the enzyme concentration and activity at various timepoints. Six timepoints were tested: 0, 30, 60, 120, 240, and 480 minutes.
The enzyme concentration was measured by HPLC. The samples were diluted 10-fold in 50 mM phosphate pH 7.4, 100 mM NaCl. The samples were tested by reverse phase using a Zorbax SB300-C8 column with 0.1% trifluoroacetic acid in water (MPA) and 0.08% trifluoroacetic acid in acetonitrile (MPB).
The activity was determined using the colorimetric activity assay described in Example 4A. The specific activity (U/mg) of the samples was calculated using the concentration of each sample as determined per Example 4D (results shown in Table 10).

[5] = test system: collagen; experiment: Collagen-modifying activity with FITC-gelatin or FITC-cadaverine; format: biochemical; settings: 16 hours, pH 7.4
Experimental: Substrate specificity for collagen of Tgase variant A3 (SEQ ID NO: 4) was tested by allowing the variant to react with either fluorescein-labeled gelatin (FITC-Gelatin, to test protein-protein cross-linking) or fluorescein-labeled cadaverine (FITC-cadaverine, to test protein-small molecule cross-linking) with a collagen layer deposited on the bottom of a 96-well microtiter plate. Tgase variant A3 (SEQ ID NO: 4) and wild-type Tgase were diluted to 4-800 ppm in 50 mM phosphate buffer, pH 7.4, supplemented with 100 mM NaCl in 96-well collagen coated microtiter plates. Either FITC-gelatin or FITC-cadaverine was added to 1 g/L (final volume 100 μL) and the plates were sealed and incubated at either 37° C. or 50° C. for 16 hours. The reaction supernatants were carefully removed and then 200 μL 50 mM [COMPOUND LEFT OUT] mM NaCl, pH 7.4 buffer was added gently against the side of each well then carefully removed. This wash step was repeated. The plate-bound material was extracted by vigorously pipetting 100 μL dimethylsulfoxide into each well, then the extract was transferred into a black bottom 96-well plate. The fluorescence of the samples was measured at an excitation wavelength of 487 nm and an emission wavelength of 528 nm. The fluorescence signal is assumed to be proportionate to the concentration of fluorescent product extracted from the surface of the plate. For both FITC-gelatin and FITC-cadaverine, the fluorescence response per concentration enzyme was higher for wells treated with Tgase variant A3 (SEQ ID NO: 4) than for wells treated with wild-type Tgase (Table 11).

Molecule: [H]/N=C(\N/C(=N/[H])NCCCCCCNC(=N)NC(=N)Nc1ccc(Cl)cc1)Nc1ccc(Cl)cc1 [Chlorhexidine, reference compound]
- MIC ([1]; read-out: Co-Dosant MIC, without Tgase variant): 2 µg/mL
- Co-Dosant MIC, with Tgase variant [1]: 1 ppm

Molecule: CCCCCCC(O)CO (stereo not shown) [caprylyl glycol]
- Preservative efficacy against E. coli, log reduction ([2]; day 2, aseptilase 0.01% alone): 5.00 log reduction in CFU/mL
- Preservative efficacy against E. coli, log reduction ([2]; day 7, aseptilase 0.01% alone): 5.00 log reduction in CFU/mL
- Preservative efficacy against C. albicans, log reduction ([3]; day 2, aseptilase 0.01% alone): 1.18 log reduction in CFU/mL
- Preservative efficacy against C. albicans, log reduction ([3]; day 7, aseptilase 0.01% alone): 2.70 log reduction in CFU/mL

Molecule: OCCOc1ccccc1 [phenoxyethanol]
- Preservative efficacy against E. coli, log reduction ([2]; day 2, aseptilase 0.01% alone): 2.15 log reduction in CFU/mL
- Preservative efficacy against E. coli, log reduction ([2]; day 7, aseptilase 0.01% alone): 3.00 log reduction in CFU/mL
- Preservative efficacy against C. albicans, log reduction ([3]; day 2, aseptilase 0.01% alone): 0.68 log reduction in CFU/mL
- Preservative efficacy against C. albicans, log reduction ([3]; day 7, aseptilase 0.01% alone): 1.73 log reduction in CFU/mL

Molecule: Polymyxin B [reference compound]
- Co-Dosant MIC, with Tgase variant [1]: 0.156 ppm
- Co-Dosant MIC, without Tgase variant ([1]; without Tgase variant): 0.625 ppm

B1: Wild-type Tgase: commercially available wild-type Tgase (Ajinimoto, Activa TI formulation) formulated at 0.75-1.0% enzyme in maltodextrin (protein, UniProt P81453 77-407, looked up)
Protein-glutamine …: DSDDRVTPPAEPLDRMPDPYRPSYGRAETVVNNYIRKWQQVYSHRDGRKQQMTEEQREWLSYGCVGVTWVNSGQYPTNRLAFASFDEDRFKNELKNGRPRSGETRAEFEGRVAKESFDEEKGFQRAREVASVMNRALENAHDESAYLDNLKKELANGNDALRNEDARSPFYSALRNTPSFKERNGGNHDPSRMKAVIYSKHFWSGQDRSSSADKRKYGDPDAFRPAPGTGLVDMSRDRNIPRSPTSPGEGFVNFDYGWFGAQTEADADKTVWTHGNHYHAPNGSLGAMHVYESKFRNWSEGYSDFDRGAYVITFIPKSWNTAPDKVKQGWP
modifications: formulated in maltodextrin
- Specific activity ([4]; timepoint 0 min): 23.3 U/mg
- Specific activity ([4]; timepoint 30 min): 31.0 U/mg
- Specific activity ([4]; timepoint 60 min): 27.0 U/mg
- Specific activity ([4]; timepoint 120 min): 29.3 U/mg
- Specific activity ([4]; timepoint 240 min): 36.8 U/mg
- Specific activity ([4]; timepoint 480 min): 21.2 U/mg
- Fluorescence/[Enzyme] ([5]; FITC-Cadaverine, 37 °C): 6.7 RFU/ppm
- Fluorescence/[Enzyme] ([5]; FITC-Cadaverine, 50 °C): 4.4 RFU/ppm
- Fluorescence/[Enzyme] ([5]; FITC-Gelatin, 37 °C): 4.6 RFU/ppm
- Fluorescence/[Enzyme] ([5]; FITC-Gelatin, 50 °C): 6.8 RFU/ppm
